Laboratory results from the NIST ThermoML archive (doi:10.1016/j.tca.2014.02.019).

Assay: xn = mol fraction of the nth substance listed
Details: 101 kPa, Liquid; for viscosity: Falling or rolling sphere viscometry; for mass density: Vibrating tube method

CCOS(=O)(=O)[O-].CC[N+]1(C)CCCCC1 [1-ethyl-1-methylpiperidinium ethyl sulfate] + O
Details	mass density [kg/m3]	viscosity [mPa·s]
298.15 K, x1 = 0.106	1113.1	7.436
298.15 K, x1 = 0.1407	1128.31	11.14
298.15 K, x1 = 0.2161	1148.02	22.79
298.15 K, x1 = 0.2643	1155.38	31.79
298.15 K, x1 = 0.3605	1164.49	54.56
298.15 K, x1 = 0.4662	1170.4	96.57
298.15 K, x1 = 0.5583	1173.75	159.1
298.15 K, x1 = 0.6591	1176.55	276.5
298.15 K, x1 = 0.7296	1177.92	419.2
298.15 K, x1 = 0.8133	1179.24	690.5
298.15 K, x1 = 1	1181.33	1821
303.15 K, x1 = 0.106	1109.81	6.222
303.15 K, x1 = 0.1407	1124.96	9.197
303.15 K, x1 = 0.2161	1144.56	18.22
303.15 K, x1 = 0.2643	1152	25.04
303.15 K, x1 = 0.3605	1161.22	42.54
303.15 K, x1 = 0.4662	1167.23	74.01
303.15 K, x1 = 0.5583	1170.68	119.5
303.15 K, x1 = 0.6591	1173.32	202.2
303.15 K, x1 = 0.7296	1174.77	296.9
303.15 K, x1 = 0.8133	1176.06	473.2
303.15 K, x1 = 1	1178.23	1186
308.15 K, x1 = 0.106	1106.45	5.272
308.15 K, x1 = 0.1407	1121.5	7.687
308.15 K, x1 = 0.2161	1141.12	14.99
308.15 K, x1 = 0.2643	1148.59	20.4
308.15 K, x1 = 0.3605	1157.92	33.84
308.15 K, x1 = 0.4662	1164.02	57.65
308.15 K, x1 = 0.5583	1167.53	91.73
308.15 K, x1 = 0.6591	1170.15	150.9
308.15 K, x1 = 0.7296	1171.56	218.5
308.15 K, x1 = 0.8133	1172.89	333.5
308.15 K, x1 = 1	1175.1	795.7
313.15 K, x1 = 0.106	1103.05	4.518
313.15 K, x1 = 0.1407	1118.01	6.508
313.15 K, x1 = 0.2161	1137.63	12.34
313.15 K, x1 = 0.2643	1145.18	16.7
313.15 K, x1 = 0.3605	1154.61	27.55
313.15 K, x1 = 0.4662	1160.8	45.97
313.15 K, x1 = 0.5583	1164.37	71.4
313.15 K, x1 = 0.6591	1167.05	115.8
313.15 K, x1 = 0.7296	1168.39	163.1
313.15 K, x1 = 0.8133	1169.71	242.2
313.15 K, x1 = 1	1171.79	549.9
318.15 K, x1 = 0.106	1099.61	3.91
318.15 K, x1 = 0.1407	1114.5	5.576
318.15 K, x1 = 0.2161	1134.17	10.38
318.15 K, x1 = 0.2643	1141.75	14.03
318.15 K, x1 = 0.3605	1151.3	22.7
318.15 K, x1 = 0.4662	1157.58	37.27
318.15 K, x1 = 0.5583	1161.21	56.71
318.15 K, x1 = 0.6591	1163.94	89.86
318.15 K, x1 = 0.7296	1165.32	123.9
318.15 K, x1 = 0.8133	1166.53	171.1
318.15 K, x1 = 1	1168.85	391.8
323.15 K, x1 = 0.106	1096.14	3.415
323.15 K, x1 = 0.1407	1110.96	4.818
323.15 K, x1 = 0.2161	1130.66	8.774
323.15 K, x1 = 0.2643	1138.31	11.77
323.15 K, x1 = 0.3605	1147.97	18.73
323.15 K, x1 = 0.4662	1154.35	30.42
323.15 K, x1 = 0.5583	1158.04	45.67
323.15 K, x1 = 0.6591	1160.83	70.97
323.15 K, x1 = 0.7296	1162.25	92.8
323.15 K, x1 = 0.8133	1163.48	130.8
323.15 K, x1 = 1	1165.73	285.8
328.15 K, x1 = 0.106	1092.63	3.006
328.15 K, x1 = 0.1407	1107.4	4.206
328.15 K, x1 = 0.2161	1127.13	7.538
328.15 K, x1 = 0.2643	1134.87	10.13
328.15 K, x1 = 0.3605	1144.63	15.77
328.15 K, x1 = 0.4662	1151.12	25.37
328.15 K, x1 = 0.5583	1154.87	37.45
328.15 K, x1 = 0.6591	1157.71	56.75
328.15 K, x1 = 0.7296	1159.16	73.46
328.15 K, x1 = 0.8133	1160.43	101.6
328.15 K, x1 = 1	1162.62	212.6
333.15 K, x1 = 0.106	1089.08	2.667
333.15 K, x1 = 0.1407	1103.8	3.7
333.15 K, x1 = 0.2161	1123.62	6.103
333.15 K, x1 = 0.2643	1131.4	8.625
333.15 K, x1 = 0.3605	1141.31	13.48
333.15 K, x1 = 0.4662	1147.88	21.32
333.15 K, x1 = 0.5583	1151.7	–
333.15 K, x1 = 0.6591	1154.59	44.89
333.15 K, x1 = 0.7296	1156.08	58.82
333.15 K, x1 = 0.8133	1157.38	80.45
333.15 K, x1 = 1	1159.54	162.5
338.15 K, x1 = 0.106	1085.5	2.383
338.15 K, x1 = 0.1407	1100.19	3.278
338.15 K, x1 = 0.2161	1120.07	4.937
338.15 K, x1 = 0.2643	1127.93	7.493
338.15 K, x1 = 0.3605	1137.96	11.57
338.15 K, x1 = 0.4662	1144.64	18.19
338.15 K, x1 = 0.5583	1148.52	26.14
338.15 K, x1 = 0.6591	1151.47	37.58
338.15 K, x1 = 0.7296	1152.99	47.7
338.15 K, x1 = 0.8133	1154.33	64.86
338.15 K, x1 = 1	1156.56	126.1
343.15 K, x1 = 0.106	1081.88	2.143
343.15 K, x1 = 0.1407	1096.54	2.926
343.15 K, x1 = 0.2161	1116.49	4.099
343.15 K, x1 = 0.2643	1124.44	6.755
343.15 K, x1 = 0.3605	1134.62	10.06
343.15 K, x1 = 0.4662	1141.4	15.53
343.15 K, x1 = 0.5583	1145.35	22.23
343.15 K, x1 = 0.6591	1148.36	32.44
343.15 K, x1 = 0.7296	1149.91	40.29
343.15 K, x1 = 0.8133	1151.31	53
343.15 K, x1 = 1	1153.58	99.87

CCOS(=O)(=O)[O-].CC[N+]1(C)CCCC1 [1-ethyl-1-methylpyrrolidinium ethyl sulfate] + O
Details	mass density [kg/m3]	viscosity [mPa·s]
313.15 K, x1 = 0.0348	1046.88	1.414
313.15 K, x1 = 0.0933	1095.76	3.185
313.15 K, x1 = 0.1312	1114.51	5.031
313.15 K, x1 = 0.2458	1144.25	10.31
313.15 K, x1 = 0.3495	1155.83	15.65
313.15 K, x1 = 0.5281	1166.58	27.98
313.15 K, x1 = 0.693	1171.73	42.48
313.15 K, x1 = 0.7794	1172.62	51.33
313.15 K, x1 = 0.895	1174.19	64.67
313.15 K, x1 = 1	1176.31	78.32
318.15 K, x1 = 0.0348	1044.06	1.27
318.15 K, x1 = 0.0933	1092.47	2.8
318.15 K, x1 = 0.1312	1111.07	4.391
318.15 K, x1 = 0.2458	1140.77	8.889
318.15 K, x1 = 0.3495	1152.31	13.37
318.15 K, x1 = 0.5281	1163.34	23.71
318.15 K, x1 = 0.693	1168.5	35.67
318.15 K, x1 = 0.7794	1169.22	42.9
318.15 K, x1 = 0.895	1171.07	53.73
318.15 K, x1 = 1	1173.63	64.72
323.15 K, x1 = 0.0348	1041.44	1.149
323.15 K, x1 = 0.0933	1089.13	2.479
323.15 K, x1 = 0.1312	1107.59	3.87
323.15 K, x1 = 0.2458	1137.17	7.729
323.15 K, x1 = 0.3495	1149.28	11.6
323.15 K, x1 = 0.5281	1160.06	20.29
323.15 K, x1 = 0.693	1165.16	30.18
323.15 K, x1 = 0.7794	1165.65	36.07
323.15 K, x1 = 0.895	1167.97	44.78
323.15 K, x1 = 1	1170.95	53.51
328.15 K, x1 = 0.0348	1038.48	1.046
328.15 K, x1 = 0.0933	1085.76	2.211
328.15 K, x1 = 0.1312	1103.99	3.392
328.15 K, x1 = 0.2458	1133.19	6.803
328.15 K, x1 = 0.3495	1145.36	10.13
328.15 K, x1 = 0.5281	1156.72	17.54
328.15 K, x1 = 0.693	1161.95	25.84
328.15 K, x1 = 0.7794	1162.9	30.7
328.15 K, x1 = 0.895	1164.87	37.8
328.15 K, x1 = 1	1168.27	44.82
333.15 K, x1 = 0.0348	1035.45	0.992
333.15 K, x1 = 0.0933	1082.31	1.985
333.15 K, x1 = 0.1312	1100.26	2.943
333.15 K, x1 = 0.2458	1129.65	6.014
333.15 K, x1 = 0.3495	1142.23	8.896
333.15 K, x1 = 0.5281	1153.16	15.32
333.15 K, x1 = 0.693	1158.04	22.4
333.15 K, x1 = 0.7794	1160.04	26.46
333.15 K, x1 = 0.895	1162.1	32.29
333.15 K, x1 = 1	1165.59	37.95
338.15 K, x1 = 0.0348	1033.08	0.983
338.15 K, x1 = 0.0933	1079.2	1.8
338.15 K, x1 = 0.1312	1097.07	2.454
338.15 K, x1 = 0.2458	1125.34	5.34
338.15 K, x1 = 0.3495	1138.14	7.739
338.15 K, x1 = 0.5281	1150.02	13.29
338.15 K, x1 = 0.693	1155.15	19.06
338.15 K, x1 = 0.7794	1156.48	22.65
338.15 K, x1 = 0.895	1158.93	27.65
338.15 K, x1 = 1	1162.91	32.87
343.15 K, x1 = 0.0348	1030.38	0.976
343.15 K, x1 = 0.0933	1075.92	1.61
343.15 K, x1 = 0.1312	1093.61	1.923
343.15 K, x1 = 0.2458	1122.44	4.202
343.15 K, x1 = 0.3495	1135.34	6.568
343.15 K, x1 = 0.5281	1146.94	11.31
343.15 K, x1 = 0.693	1152.01	16.47
343.15 K, x1 = 0.7794	1153.23	19.55
343.15 K, x1 = 0.895	1155.85	24.69
343.15 K, x1 = 1	1160.23	29.23
